Like-named read-outs stand apart in the source and are kept apart here.
Legend:
Format in all cases: in vivo
Abutilon theophrasti = assay: Pre-emergence herbicidal action against harmful plants; details: dosage 320 g/ha; for pest or weed control at 320 g/ha: Abutilon theophrasti, 504 h, read-out: Herbicidal action against ABUTH
Excerpt: (§1) The abbreviations used in the tables below denote: • ABUTH Abutilon theophrasti • AMARE Amaranthus retroflexus • ECHCG Echinochloa crus galli • PHBPU Phartoitis purpureum • STEME Stellaria media • ALOMY Alopecurus myosuroides • AVEFA Avena fatua • MATIN Matricaria inodora • POLCO Fallopia convolvulus • VERPE Veronica persica 1. Pre-emergence Herbicidal Action Against Harmful Plants Seeds of monocotyledonous and dicotyledonous weed plants and crop plants are placed in wood-fibre pots in sandy loam and covered with soil. The compounds according to the invention and the compounds known from the prior art, formulated in the form of wettable powders (WP) or as emulsion concentrates (EC), are then applied as aqueous suspension or emulsion at a water application rate of 600 to 800 I/ha (converted) with the addition of 0.2% of wetting agent to the surface of the covering soil. After the treatment, the pots are placed in a greenhouse and kept under good growth conditions for the test plants. The visual assessment of the damage to the test plants is carried out after a trial period of 3 weeks by comparison with untreated controls (herbicidal activity in percent (%): 100% activity=the plants have died, 0% activity=like control plants, —=not tested). The results of comparative table A show the compounds according to the invention have a higher herbicidal activity than the compounds of the greatest structural similarity known from the closest prior art.

Phartoitis purpureum [1] = assay: as above; details: dosage 320 g/ha; for Herbicidal action against PHBPU: visual assessment after 3 weeks (Table A); for Herbicidal action against PHPBU: visual assessment after 3 weeks (Table C)
Excerpt: as §1

Echinochloa crus galli [2] = assay: as above; details: dosage 320 g/ha; for pest or weed control at 320 g/ha: Echinochloa, 504 h, read-out: Herbicidal action against ECHCG
Excerpt: as §1

Stellaria media [3] = assay: as above; details: 504 h, dosage 320 g/ha, visual assessment after 3 weeks (Table A), read-out: Herbicidal action against STEME
Excerpt: as §1

Alopecurus myosuroides = assay: as above; details: dosage 320 g/ha, visual assessment after 3 weeks (Table A)
Excerpt: as §1

Matricaria inodora [4] = assay: as above; details: dosage 320 g/ha; for pest or weed control at 320 g/ha: Tripleurospermum inodorum, 504 h, read-out: Herbicidal action against MATIN
Excerpt: as §1

Avena fatua [5] = assay: as above; details: dosage 320 g/ha, visual assessment after 3 weeks (Table A)
Excerpt: as §1

Veronica persica [6] = assay: as above; details: 504 h, dosage 320 g/ha, visual assessment after 3 weeks (Table A), read-out: Herbicidal action against VERPE
Excerpt: as §1

Amaranthus retroflexus [7] = assay: as above; details: 504 h, dosage 320 g/ha, read-out: Herbicidal action against AMARE
Excerpt: as §1

Phartoitis purpureum [8] = assay: Post-emergence herbicidal action against harmful plants; details: 504 h, dosage 80 g/ha
Excerpt: (§2) The abbreviations used in the tables below denote: • ABUTH Abutilon theophrasti • AMARE Amaranthus retroflexus • ECHCG Echinochloa crus galli • PHBPU Phartoitis purpureum • STEME Stellaria media • ALOMY Alopecurus myosuroides • AVEFA Avena fatua • MATIN Matricaria inodora • POLCO Fallopia convolvulus • VERPE Veronica persica 1. Pre-emergence Herbicidal Action Against Harmful Plants Seeds of monocotyledonous and dicotyledonous weed and crop plants are placed in sandy loam in wood-fibre pots, covered with soil and cultivated in a greenhouse under good growth conditions. 2 to 3 weeks after sowing, the test plants are treated at the one-leaf stage. The compounds according to the invention, formulated in the form of wettable powders (WP) or as emulsion concentrates (EC), are then sprayed as aqueous suspension or emulsion at a water application rate of 600 to 800 I/ha (converted) with the addition of 0.2% of wetting agent onto the green parts of the plants. After the test plants have been kept in the greenhouse under optimum growth conditions for about 3 weeks, the activity of the preparations is rated visually in comparison to untreated controls (herbicidal activity in percent (%): 100% activity=the plants have died, 0% activity=control plants, —=not tested).

Echinochloa crus galli [9] = assay: as above; details: 504 h, dosage 80 g/ha, read-out: Herbicidal action against ECHCG
Excerpt: as §2

Stellaria media [10] = assay: as above; details: 504 h, dosage 80 g/ha, visual rating after about 3 weeks (Table D), read-out: Herbicidal action against STEME
Excerpt: as §2

Matricaria inodora [11] = assay: as above; details: Tripleurospermum inodorum, 504 h, dosage 80 g/ha, read-out: Herbicidal action against MATIN
Excerpt: as §2

Avena fatua [12] = assay: as above; details: dosage 80 g/ha, visual rating after about 3 weeks (Table D)
Excerpt: as §2

Veronica persica [13] = assay: as above; details: 504 h, dosage 80 g/ha, visual rating after about 3 weeks (Table D), read-out: Herbicidal action against VERPE
Excerpt: as §2

Amaranthus retroflexus [14] = assay: as above; details: 504 h, dosage 80 g/ha, visual rating after about 3 weeks (Table D), read-out: Herbicidal action against AMARE
Excerpt: as §2

Fallopia convolvulus = assay: as above; details: 504 h, dosage 80 g/ha, read-out: Herbicidal action against POLCO
Excerpt: as §2

VIOTR [15] = assay: Pre-emergence herbicidal action against harmful plants; details: dosage 320 g/ha, visual assessment after 3 weeks (Table C)
Excerpt: as §1, with “Seeds” for “The abbreviations used in the tables below denote: • ABUTH Abutilon theophrasti • AMARE Amaranthus retroflexus • ECHCG Echinochloa crus galli • PHBPU Phartoitis purpureum • STEME Stellaria media • ALOMY Alopecurus myosuroides • AVEFA Avena fatua • MATIN Matricaria inodora • POLCO Fallopia convolvulus • VERPE Veronica persica 1. Pre-emergence Herbicidal Action Against Harmful Plants Seeds”

SETVI = assay: as above; details: dosage 320 g/ha, visual assessment after 3 weeks (Table C)
Excerpt: as §1, with “Seeds” for “The abbreviations used in the tables below denote: • ABUTH Abutilon theophrasti • AMARE Amaranthus retroflexus • ECHCG Echinochloa crus galli • PHBPU Phartoitis purpureum • STEME Stellaria media • ALOMY Alopecurus myosuroides • AVEFA Avena fatua • MATIN Matricaria inodora • POLCO Fallopia convolvulus • VERPE Veronica persica 1. Pre-emergence Herbicidal Action Against Harmful Plants Seeds”

VIOTR [16] = assay: Post-emergence herbicidal action against harmful plants; details: dosage 80 g/ha, visual rating after about 3 weeks (Table E)
Description: as §2, with “Seeds” for “The abbreviations used in the tables below denote: • ABUTH Abutilon theophrasti • AMARE Amaranthus retroflexus • ECHCG Echinochloa crus galli • PHBPU Phartoitis purpureum • STEME Stellaria media • ALOMY Alopecurus myosuroides • AVEFA Avena fatua • MATIN Matricaria inodora • POLCO Fallopia convolvulus • VERPE Veronica persica 1. Pre-emergence Herbicidal Action Against Harmful Plants Seeds”

[17] = visual assessment after 3 weeks (Table A)
[18] = visual rating after about 3 weeks (Table D), read-out: Herbicidal action against PHBPU
[19] = visual rating after about 3 weeks (Table D)
[20] = visual assessment after 3 weeks (Table C)
[21] = visual rating after about 3 weeks (Table E), read-out: Herbicidal action against PHPBU
[22] = visual rating after about 3 weeks (Table E)

| Compound | pest or weed control at 320 g/ha (Abutilon theophrasti; [17]) [%] | Herbicidal action against PHBPU (Phartoitis purpureum [1]) [%] | pest or weed control at 320 g/ha (Echinochloa crus galli [2]; [17]) [%] | pest or weed control at 320 g/ha (Stellaria media [3]) [%] | Herbicidal action against ALOMY (Alopecurus myosuroides) [%] | pest or weed control at 320 g/ha (Matricaria inodora [4]; [17]) [%] | Herbicidal action against AVEFA (Avena fatua [5]) [%] | pest or weed control at 320 g/ha (Veronica persica [6]) [%] | pest or weed control at 320 g/ha (Amaranthus retroflexus [7]; [17]) [%] | pest or weed control at 80 g/ha (Phartoitis purpureum [8]; [18]) [%] | pest or weed control at 80 g/ha (Echinochloa crus galli [9]; [19]) [%] | pest or weed control at 80 g/ha (Stellaria media [10]) [%] | pest or weed control at 80 g/ha (Matricaria inodora [11]; [19]) [%] | Herbicidal action against AVEFA (Avena fatua [12]) [%] | pest or weed control at 80 g/ha (Veronica persica [13]) [%] | pest or weed control at 80 g/ha (Amaranthus retroflexus [14]) [%] | pest or weed control at 80 g/ha (Fallopia convolvulus; [19]) [%] | Herbicidal action against PHPBU (Phartoitis purpureum [1]) [%] | pest or weed control at 320 g/ha (Amaranthus retroflexus [7]; [20]) [%] | pest or weed control at 80 g/ha (Phartoitis purpureum [8]; [21]) [%] | further results |
| --- | --- | --- | --- | --- | --- | --- | --- | --- | --- | --- | --- | --- | --- | --- | --- | --- | --- | --- | --- | --- | --- |
| CN(C)C(=O)COc1c(Cl)ccc(C(=O)C2=C(O)CCCC2=O)c1C(F)(F)F [Compound E1] | 100 | 80 | 100 | 90 | 100 | 100 | 90 | 100 | 100 | 90 | 90 | 90 | 100 | 80 | 90 | 80 | 100 |  |  |  |  |
| CCS(=O)(=O)c1ccc(C(=O)C2=C(O)CCCC2=O)c(Cl)c1OCC(=O)N(C)OC [Compound S8, reference compound] |  |  |  |  |  |  |  |  |  |  |  |  |  |  |  |  |  | 70 | 90 | 80 | pest or weed control at 320 g/ha (Abutilon theophrasti; [20]): 90%; pest or weed control at 320 g/ha (Echinochloa crus galli [2]; [20]): 60%; pest or weed control at 320 g/ha (Matricaria inodora [4]; [20]): 90%; pest or weed control at 80 g/ha (Echinochloa crus galli [9]; [22]): 80%; pest or weed control at 80 g/ha (Matricaria inodora [11]; [22]): 60%; pest or weed control at 80 g/ha (Fallopia convolvulus; [22]): 80%; Herbicidal action against VIOTR (VIOTR [15]): 20%; Herbicidal action against SETVI (SETVI): 50%; Herbicidal action against VIOTR (VIOTR [16]): 80% |
| CN(C)C(=O)COc1c(Cl)ccc(C(=O)C2=C(O)CCCC2=O)c1Cl [Compound S1, reference compound] | 90 | 40 | 30 | 80 | 40 | 100 | 20 | 70 | 60 | 70 | 50 | 70 | 100 | 50 | 70 | 80 | 60 |  |  |  |  |
| CCS(=O)(=O)c1ccc(C(=O)C2=C(O)CCCC2=O)c(C(F)(F)F)c1OCC(=O)N(C)OC [Compound E8] | 100 |  | 100 | 100 |  | 100 |  | 100 |  |  |  |  |  |  |  |  |  | 90 | 100 | 80 | Herbicidal action against ABUTH (Abutilon theophrasti; [20]): 100%; Herbicidal action against ECHCG (Echinochloa crus galli [2]; [20]): 100%; Herbicidal action against MATIN (Matricaria inodora [4]; [20]): 100%; pest or weed control at 80 g/ha (Echinochloa crus galli [9]; [22]): 90%; pest or weed control at 80 g/ha (Matricaria inodora [11]; [22]): 90%; pest or weed control at 80 g/ha (Fallopia convolvulus; [22]): 90%; Herbicidal action against VIOTR (VIOTR [15]): 100%; Herbicidal action against SETVI (SETVI): 90%; Herbicidal action against VIOTR (VIOTR [16]): 90% |

Source: patent publication US8557741B2, “3-aminocarbonyl-substituted benzoylcyclohexanediones and their use as herbicides” (Bayer CropScience AG, priority 2010, dated 2013)
